Results as given in patent US20220280601A1, “METHOD FOR TREATMENT OF HEPATIC CANCER USING REIC/Dkk-3 GENE IN COMBINATION WITH ANTI-TUMOR AGENT” (Momotaro-Gene Inc., priority 2019, published 2022).

Experiments:
advanced hepatic cancer = conditions: clinical trials, advanced hepatic cancer (Non-Patent Document 1); cited from earlier work
[1] = system: JNK signal transmission pathway (p-ASK1, p-IRE1α, p-JNK, p-c-Jun) in Huh7 cells; assay: Immunoblot analysis of the JNK signal transmission pathway; assay type: cell-based; conditions: Huh7, lysates 48 hours after transfection, regardless of the presence or absence of Ad-REIC (MOI of 10)
Procedure: The mechanism of Ad-REIC for apoptosis induction was examined. By performing immunoblotting, activation of signal transmission molecules in the JNK signal transmission pathway by Ad-REIC and Cisplatin was evaluated. Ad-LacZ and Ad-REIC at MOI of 10 each were transfected into the Hep3B cells and the Huh7 cells, and cell lysates were collected 48 hours thereafter. Protein expression of phospho-ASK1 (p-ASK1), phospho-IRE1α (p-IRE1α), phospho-JNK (p-JNK), and phospho-c-Jun (p-c-Jun) β-actin was analyzed via immunoblotting using specific antibodies. Immunoblotting of β-actin was performed to examine equal loading of proteins in the cells.

Hep3B cells = assay: MTT cell viability assay, Hep3B; assay type: cell-based; conditions: 72 hours
Procedure: (§1) The hepatic cancer cell lines Hep3B and Huh7 (hereafter, referred to as “Hep3B cells” and “Huh7 cells,” respectively, according to need) were purchased from the Japanese Cancer Resources Bank (Tokyo, Japan). The cells were maintained in Dulbecco's Modified Eagle's Medium supplemented with 10% FBS, 1% non-essential amino acid, 1% penicillin/streptomycin, and amphotericin B (0.5 μg/ml). The cells were cultured in accordance with a conventional technique in a humidified 5% CO2 incubator at 37° C. When the cells reached subconfluency, they were pretreated in a medium containing 0.1% dialyzed FBS for 24 hours before experimentation and then subjected to experimentation. […]
(§2) The hepatic cancer cell lines Hep3B and Huh7 were cultured in the presence or absence of Ad-LacZ or Ad-REIC for 72 hours. Cell viability was evaluated via MTT assays. […] Mitochondrial activity reflecting cell viability was evaluated by measuring the absorbance at 570 nm using a microplate reader. […]
(§3) Hep3B cells and Huh7 cells were cultured in the presence or absence of Cisplatin (1 μg/ml) for 72 hours and in the presence or absence of Ad-Lac Z (MOI of 50) or Ad-REIC (MOI of 50). Cell viability was evaluated by the MTT assays described above. […]

[2] = system: mouse hepatocellular cancer cell line Hep1-6 allograft; assay: Tumor growth assay in allograft mouse model (Hep1-6), Ad-REIC with Cisplatin; assay type: in vivo, C57BL/6 mice; conditions: Ad-REIC 1.0×10^9 pfu intratumorally Days 14, 16, Cisplatin 1 mg/kg intraperitoneally Days 14, 21, control PBS
Source text: C57BL/6 female mice (6- to 8-week-old) were purchased from Japan SLC Inc. and maintained with free access to feeds and water in the SPF environment in Okayama University animal experimentation facility. Mice were adapted to the breeding environment over a period of 1 week or longer before the experimentation was initiated. Mice were bred and treated under the strictly controlled conditions in accordance with the guidelines provided by the institutional animal control committee, Okayama University Medical School.
The mouse hepatocellular cancer cell line Hep1-6 ([…], suspended in 200 μl of PBS) were injected into the right flanks of the C57BL/6 mice (Day 0). When the tumor diameters reached 5 to 10 mm, administration of Ad-REIC and Cisplatin was initiated. Ad-REIC (1.0×10^9 pfu) was administered intratumorally on Days 14 and 16. Cisplatin (1 mg/kg) was administered intraperitoneally on Days 14 and 21. Tumor sizes were measured 2 times a week, and tumor volumes were determined.

Huh7 cells = assay: MTT cell viability assay, Huh7; assay type: cell-based; conditions: 72 hours
Procedure: as §1, §2, §3

Row | SMILES | medial survival period (advanced hepatic cancer) [months] | expression of p-ASK1, p-IRE1α, p-JNK and p-c-Jun (immunoblotting) [1] | cell viability of Hep3B cells, dependence on amount of Cisplatin (Hep3B cells) | anti-tumor effects (tumor volume) [2] | cell viability of Huh7 cells, dependence on amount of Cisplatin (Huh7 cells)
1 | CNC(=O)c1cc(Oc2ccc(NC(=O)Nc3ccc(Cl)c(C(F)(F)F)c3)cc2)ccn1 [Sorafenib] | 15.6 | – | – | – | –
2 | N.N.[Cl][Pt][Cl] [Cisplatin] | – | each such expression was activated | decreased depending on the amount of Cisplatin administered | the tumor volume was decreased, and anti-tumor effects were observed | decreased depending on the amount of Cisplatin administered
